One data set relates to HL-60 cells. The experiment in a line: HL-60 differentiation (NBT reduction). The data set is classed as cell-based, human. The following applies: day 6. The protocol:
(§1) Differentiation of AML cell lines was assessed by their ability to produce superoxide as measured by reduction of NBT to formazan and by analysis of expression of CD11b surface marker by flow cytometry. For NBT reduction, each cell suspension was mixed with an equal volume of solution containing 1 mg/ml of NBT (Sigma) and 2.5 µg/ml of TPA for 30 minutes at 37° C. After incubation, cells containing the purple formazan deposits and cells devoid of NBT-reducing activity (white cells) in each sample were determined by counting 200 cells under microscope. Data is expressed as a percentage based on the following ratio: purple cells/purple+white cells. For analysis of cell surface antigens, cells were exposed to phycoerythrin (PE)-conjugated murine anti-human CD11b (DAKO Corp., Carpinteria, Calif.). Analysis of fluorescence was performed on a FACScan flow cytometer (Beckton Dickinson, Mountain View, Calif.).

In another data set the test system is U937 cells. The experiment in a line: U937 differentiation (NBT reduction). The data set is classed as cell-based, human. The following applies: day 6. How it is done: as §1
In data set [1] the test system is NB4 cells. The experiment in a line: NB4 cell cycle analysis and Annexin V/propidium iodide assay. The data set is classed as cell-based, human. The following applies: 3 days; sodium stibogluconate 250 μg/ml, ATRA 1 μM. How it is done: […] Briefly, the cells were fixed in cold ethanol and incubated for 30 minutes at 4° C. in the dark with a solution of […], 1 mg/ml RNase and 0.1% NP-40. Analysis was performed immediately after staining using the CELLFIT program (Becton Dickinson, Mountain View, Calif.).
] Annexin V staining of exposed membrane phospholipid phosphatidylserine (PS) was done using the Annexin V assay kit (Pharmingen, San Diego, Calif.). Briefly, NB4 cells were cultured in the 10% FCS RPMI 1640 medium in the absence or presence of sodium stibogluconate (250 µg/ml) or ATRA (1 µM) for 3 days. Cells were then washed in PBS twice and stained in binding buffer (10 mM Hepes, pH 7.4; 140 mM NaCl; 2.5 mM CaCl2) containing Annexin V-FITC and propidium iodide for 15 min. The reaction was stopped by adding 10 volumes of binding buffer and analyzed by FACS (Becton Dickinson Facsvantage).

Data set [2] concerns acute promyelocytic leukemia. The following applies: in vivo; cited from earlier work.
The next data set concerns the target T1, SHP-1 (Mus musculus, UniProt P29351).
T1 construct: made in house
The data set is described as follows: In vitro PTPase assay, GST/SHP-1. The data set is classed as biochemical. The following applies: 1-1,000 μg/ml. The protocol: In vitro PTPase activities were measured using the commercial protein tyrosine phosphatase assay kit (Upstate Biotechnology, Inc. (“UBI”)) following established procedure known to one of skill in the art. […] Briefly, 0.01 µg of GST/PTPase fusion proteins was incubated in 50 µl of Tris buffer (10 mM Tris, pH 7.4) containing different concentrations of inhibitors or chemicals (0-1,000 µg/ml) at 22° […] 100 µl of Malachite Green solution was added and incubated for 5 minutes, and the absorbance at 660 nm was measured after 5 minutes.
To assess the reversibility of inhibition of SHP-1 by PTPase inhibitors, GST/SHP-1 fusion protein bound on glutathione beads were pre-incubated in cold Tris buffer or Tris buffer containing the PTPase inhibitors at 4° C. for 30 minutes. The beads were then either subjected to in vitro PTPase assays or washed 3 times in Tris buffer then subjected to in vitro PTPase assays.
Briefly, individual PTPases (0.1 µg/reaction) in 50 µL of PTPase buffer (50 mM Tris, pH 7.4) were incubated at 22° C. for 10 minutes or as indicated in the absence or presence of inhibitory compounds. Substrates (0.2 mM phosphotyrosine peptide) were then added and allowed to react at 22° C. for 18 hrs. PTPase activity of individual reactions was measured by adding 100 µL of malachite green solution (UBI) and then quantifying the amounts of free phosphate cleaved by the PTPase from the peptide substrate by spectrometry (OD660 nm). […] Relative PTPase activities were calculated based on the formula: (PTPase activity in the presence of an inhibitory compound/PTPase activity in the absence of the compound)× 100%. To assess the reversibility of PTPase inhibition, GST fusion proteins of the PTPases bound on glutathione beads (Pharmacia) were pre-incubated with cold Tris buffer (50 mM Tris, pH 7.0) or Tris buffer containing the inhibitor at 4° C. for 30 minutes. The beads were then washed three times in cold Tris buffer or not washed prior to subjecting to in vitro PTPase assays.

In the next data set the target is T2, PTP1B (Homo sapiens, UniProt P18031).
T2 construct: purchased Upstate Biotechnology Inc. (Lake Placid, N.Y.)
T2 sequence (P18031 whole entry, species assumed): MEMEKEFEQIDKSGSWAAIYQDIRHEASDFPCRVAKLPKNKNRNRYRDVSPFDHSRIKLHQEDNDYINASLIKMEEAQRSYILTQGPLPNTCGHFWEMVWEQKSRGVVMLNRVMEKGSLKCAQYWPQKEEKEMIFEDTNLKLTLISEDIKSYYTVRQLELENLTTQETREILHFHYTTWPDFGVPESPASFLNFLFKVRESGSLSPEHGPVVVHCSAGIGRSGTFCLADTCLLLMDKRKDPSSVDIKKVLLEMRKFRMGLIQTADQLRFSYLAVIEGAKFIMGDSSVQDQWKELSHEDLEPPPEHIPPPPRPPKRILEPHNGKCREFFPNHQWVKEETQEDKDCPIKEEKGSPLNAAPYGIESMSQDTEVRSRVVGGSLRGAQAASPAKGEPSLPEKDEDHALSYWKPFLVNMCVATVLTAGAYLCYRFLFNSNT
The data set is described as follows: In vitro PTPase assay, GST/PTP1B. The data set is classed as biochemical. The following applies: 1-1,000 μg/ml. The protocol: In vitro PTPase activities were measured using the commercial protein tyrosine phosphatase assay kit (Upstate Biotechnology, Inc. (“UBI”)) following established procedure known to one of skill in the art. This assay measures the in vitro dephosphorylation of a synthetic phosphotyrosine peptide of the sequence Arg-Arg-Leu-Ile-Glu-Asp-Ala-Gle-T- -yr-Ala-Ala-Arg-Gly, wherein the tyrosine is phosphorylated (SEQ ID NO: 3). Briefly, 0.01 µg of GST/PTPase fusion proteins was incubated in 50 µl of Tris buffer (10 mM Tris, pH 7.4) containing different concentrations of inhibitors or chemicals (0-1,000 µg/ml) at 22° C. for 10 minutes, followed by addition of 0.2 mM of the phosphotyrosine peptide and incubation at 22° C. for 18 hours. 100 µl of Malachite Green solution was added and incubated for 5 minutes, and the absorbance at 660 nm was measured after 5 minutes.
In vitro PTPase assays were used to determine the effects of levamisole (Sigma), pentamidine (American Pharmaceutical Partners, Inc.), and ketoconazole (Sigma) on recombinant PTPases, following established procedures (Pathak et al., J. Imumol. 167, 3391 (2001); Pathak et al., Leukemia 16, 2285 (2002), Yi et al., J. Immunol. 169, 5978 (2002)) using a synthetic phosphotyrosine peptide or DiFMUP as the substrate as detailed above in section I.A.2.

Data set [3] has as its system Jak2/Stat5 and cellular protein tyrosine phosphorylation in Baf3 cells. The data set is described as follows: Cellular protein phosphorylation and Western blotting in Baf3 cells. The following applies: Baf3 cells. The data set is classed as cell-based, murine. The protocol: For induction of cellular protein phosphorylation by sodium stibogluconate or pervanadate, Baf3 cells were incubated in 0.1% FCS-RPMI 1640 medium at 37° C. for 16 hours. The cells were then washed twice in RPMI 1640 medium and incubated with sodium stibogluconate or pervanandate (0.1 mM) for various times prior to termination by lysing cells in cold lysis buffer (50 mM Tris, pH 7.4; 150 mM NaCl; 0.2 mM Na3VO4; 20 mm NaF; 1% Nonidet P-40; 2 mM PMSF; 20 µg/ml of Aprotinin and 1 mM of sodium molybdic acid). To determine the effect of sodium stibogluconate or potassium antimonyl tartrate on IL-3-induced Jak/Stat phosphorylation, Baf3 cells were deprived of the growth factor for 16 hours in 0.1% FCS RPMI 1640 medium and then incubated with or without sodium stibogluconate or potassium antimonyl tartrate for 10 minutes. IL-3 was next added to the cell suspension and incubated for various times. The Cells were then harvested and lysed in cold lysis buffer at 4° C. for 45 minutes. Total cell lysates (TCL) were separated in SDS-PAGE gels, blotted onto nitrocellulose membrane (Schleicher & Schuell), probed with specific antibodies and detected using an enhanced chemiluminescence kit (ECL, Amersham, Arlington Heights, Ill.).
On the technique in general: Immunoblotting shows a protein as a band on a membrane.

For a further data set, the system named is Baf3 cells. The data set is described as follows: Baf3 cell proliferation assay. The data set is classed as cell-based, murine. The protocol: The murine hematopoietic cell line Baf3 was maintained in RPMI 1640 medium supplemented with 10% fetal calf serum (FCS) and murine IL-3 (20 units/ml) as described previously in Damen et al., J. Biol. Chem. 270, 23402 (1995). Human myeloid cell line TF-1 was maintained in RPMI 1640 supplemented with 10% FCS and 40 ng/ml of recombinant human GM-CSF as described previously in Thomassen et al., Clin. Immunol. 95, 85 (2000). For cell proliferation assays, cells were washed in 10% FCS medium twice, resuspended in 10% FCS medium, incubated at 37° C. for 16 hours, and then cultured at 37° C. in 10% FCS medium containing various amounts of cytokines, sodium stibogluconate, or potassium antimonyl tartrate for 3-6 days as indicated. The cell numbers in proliferation assays were determined by an MTT assay or by microscopic cell counting as indicated.

In data set [4] the test system is NB4 cells. The data set is described as follows: NB4 differentiation (NBT reduction, CD11b). The data set is classed as cell-based, human. The following applies: GM-CSF alone. How it is done: as §1
Setting [5] is: sodium stibogluconate 400 μg/ml, GM-CSF 25 ng/ml.

Several values for one entry are separate records, joined by “and”; a condition that tells them apart may be missing. Equal values may be shown once.

T1 sequence (P29351 whole entry): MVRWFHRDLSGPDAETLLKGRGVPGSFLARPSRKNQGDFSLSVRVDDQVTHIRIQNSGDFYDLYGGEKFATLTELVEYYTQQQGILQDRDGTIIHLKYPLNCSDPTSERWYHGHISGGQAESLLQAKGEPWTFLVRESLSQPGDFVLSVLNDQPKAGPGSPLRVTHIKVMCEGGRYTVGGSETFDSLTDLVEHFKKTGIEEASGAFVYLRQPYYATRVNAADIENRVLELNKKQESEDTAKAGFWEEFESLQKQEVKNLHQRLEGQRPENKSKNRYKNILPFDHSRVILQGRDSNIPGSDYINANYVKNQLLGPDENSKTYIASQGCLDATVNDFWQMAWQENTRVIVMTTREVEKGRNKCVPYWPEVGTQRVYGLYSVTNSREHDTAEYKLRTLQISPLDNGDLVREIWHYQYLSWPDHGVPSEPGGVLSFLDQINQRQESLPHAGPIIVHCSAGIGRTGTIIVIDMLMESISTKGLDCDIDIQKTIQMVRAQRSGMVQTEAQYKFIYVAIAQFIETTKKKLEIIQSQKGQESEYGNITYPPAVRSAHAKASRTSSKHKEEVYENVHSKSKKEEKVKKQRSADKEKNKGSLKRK

Consider `CC1=C(/C=C/C(C)=C/C=C/C(C)=C/C(=O)O)C(C)(C)CCC1` [ATRA, All-trans-retinoic acid], for which, in the data set with HL-60 cells (setting [5]), the “HL-60 differentiation (NBT-positive cells)” value turned out to be 90%. Moreover, the “U937 differentiation (NBT-positive cells)” value in the data set on U937 cells (setting [5]) is 72% and 73%. Moreover, the “cell cycle distribution of NB4 cells” value in the data set with NB4 cells [1] is “arrested at G1 phase”. The “long term APL-free survival” value in data set [2] is recorded as “exceeding 75%”.

Turning to `O.O.O.O=C([O-])[C@H]([O-])[C@@H]([O-])C(=O)[O-].O=C([O-])[C@H]([O-])[C@@H]([O-])C(=O)[O-].[K+].[K+].[Sb+3].[Sb+3]` [potassium antimonyl tartrate], the “inhibition of SHP-1” value against SHP-1 is listed as “no detectable inhibition”. For the same molecule, the “inhibition of PTP1B” value against PTP1B is recorded as “no detectable inhibition”. Also, the “IL-3-induced Stat5 phosphorylation” value in [3] is “failed to enhance”. Besides, the “toxicity against Baf3 cells” value with Baf3 cells is “marked toxicity”. Moreover, the “IL-3-induced proliferation of Baf3 cells” value with Baf3 cells (IL-3 10 units/ml, three days) was “failed to enhance”.

For the molecule GM-CSF: recombinant human GM-CSF, the “effect on NB-4 cell differentiation” value in the data set on NB4 cells [4] was “no detectable effect”. Also, the “maximal increase of NBT-positive cells” value in the data set with HL-60 cells (GM-CSF alone) and in the data set with U937 cells (GM-CSF alone) was 8-10% each time.

The values above are taken from patent US20080089860A1, “Therapeutic compositions and methods useful in treating cancer” (priority 2006, published 2008).
